Measured values published in patent US8933066B2, “Compounds for the treatment of hepatitis C” (priority 2011, dated 2015).
Read-outs that look alike come from different tables or passages of the source.

Tested on: HCV pseudoparticles (genotype 1a HCV E1 and E2 envelope, H77C isolate)
Test: HCV pseudoparticle infection assay (luciferase reporter, entry into Huh7 cells)
Type: cell-based
Conditions: Hepatitis C virus, Huh-7, 48 h
[1] = read-out: Activity Range (EC50)

Row | Structure (SMILES) | EC50 [1] | EC50
1 | FC(F)(F)COc1nc2nc(n1)Nc1cnn(c1)CCCCCCOc1ccc(cc1)CN2 [Example 3001] | 0.1 to 500 nM | 
2 | FC(F)(F)COc1nc2nc(n1)Nc1cnn(c1)CCOCCOCCOc1ccc(cc1)CN2 [Example 2002] | 0.1 to 500 nM | 
3 | CC(C)(C)NC(=O)N1CCCOc2ccc(cc2)CNc2nc(nc(OCC(F)(F)F)n2)Nc2cnn(c2)CC1 [Example 2007] | 0.1 to 500 nM | 105 nM
4 | FC(F)(F)COc1nc2nc(n1)Nc1cnn(c1)CCNCCCOc1ccc(cc1)CN2 [Example 2006] | 0.1 to 500 nM | 
